Paper PMC6060096, “Novel 3D Structure Based Model for Activity Prediction and Design of Antimicrobial Peptides” (Scientific Reports, 2018)
Values after ≈ are worked out from the molar mass of the structure shown. Residues, ends and D or L forms follow the SMILES beside them.

What was measured:
Assay type in all cases: cell-based
[1] = tested on: Bacillus subtilis (CMCC(B)63501); test: microbe, parasite or virus in culture
Procedure: (§1) The experimentally determined strains are as follows: Listeria monocytogenes (ATCC 19115), Staphylococcus aureus (CMCC(B)26003), Bacillus subtilis (CMCC(B)63501), Escherichia coli (CMCC(B) 44102), Pseudomonas aeruginosa (CMCC(B)10104), Enterococcus faecalis (clinical strains) from China Pharmaceutical University Microbiology Laboratory. Minimal inhibitory concentration(MIC) of peptides were determined using broth microdilution method. Two-fold serial dilutions of eight peptides were prepared from 1024.0 to 1.0 μg/ml in 96-well microtiter plate (100.0 μl of each well). Then peptide dilutions were mixed with LB broth and bacterial culture (100.0 μl) containing 2.0 × 10^5 CFU/ml. Final peptide concentrations ranged from 0.5 to 512.0 μg/ml. The final bacterial concentration was approximately 1.0 × 10^5 CFU/ml. Positive controls were incubated with Cefuroxime instead of peptide, at concentrations from 0.5 to 512.0 μg/ml. Negative and blank controls were incubated, respectively, with sterile deionized water or only LB broth. Microtiter plates were incubated at 37 °C for 24 h under normal atmospheric conditions. OD600 was measured using a microplate spectrophotometer (Multiskan GO, Thermo Scientific, USA). MIC was recorded as the endpoint where no difference of OD600 could be detected with respect to the blank LB broth. MIC assays were performed three times for all strains.

[2] = tested on: Staphylococcus aureus (CMCC(B)26003); test: microbe, parasite or virus in culture
Procedure: as §1

[3] = tested on: Escherichia coli (CMCC(B) 44102); test: microbe, parasite or virus in culture
Procedure: as §1

[4] = tested on: Listeria monocytogenes (ATCC 19115); test: microbe, parasite or virus in culture
Procedure: as §1

[5] = tested on: Pseudomonas aeruginosa (CMCC(B)10104); test: microbe, parasite or virus in culture
Procedure: as §1

[6] = tested on: Enterococcus faecalis (clinical strains); test: MIC, broth microdilution; settings: LB broth, ~1.0 × 10^5 CFU/ml, 0.5 to 512.0 μg/ml, 37 °C, 24 h, OD600, performed three times
Procedure: as §1

## CO/N=C(\C(=O)N[C@@H]1C(=O)N2C(C(=O)O)=C(COC(N)=O)CS[C@H]12)c1ccco1 [Cefuroxime, reference compound]
[1]; Bacillus subtilis, CMCC(B)63501, broth microdilution, LB broth, ~1.0 × 10^5 CFU/ml, 0.5 to 512.0 μg/ml, 37 °C, 24 h, OD600, performed three times
  MIC: ≤ 0.5 µg/mL
[2]; Staphylococcus aureus, CMCC(B)26003, broth microdilution, LB broth, ~1.0 × 10^5 CFU/ml, 0.5 to 512.0 μg/ml, 37 °C, 24 h, OD600, performed three times
  MIC: 4 µg/mL (≈ 9.43 µM)
[3]; Escherichia coli, CMCC(B) 44102, broth microdilution, LB broth, ~1.0 × 10^5 CFU/ml, 0.5 to 512.0 μg/ml, 37 °C, 24 h, OD600, performed three times
  MIC: 8 µg/mL (≈ 18.9 µM)
[4]; Listeria monocytogenes, ATCC19115, ATCC 19115, broth microdilution, LB broth, ~1.0 × 10^5 CFU/ml, 0.5 to 512.0 μg/ml, 37 °C, 24 h, OD600, performed three times
  MIC: 4 µg/mL (≈ 9.43 µM)
[5]; Pseudomonas aeruginosa, CMCC(B)10104, broth microdilution, LB broth, ~1.0 × 10^5 CFU/ml, 0.5 to 512.0 μg/ml, 37 °C, 24 h, OD600, performed three times
  MIC: > 512 µg/mL
[6]; Enterococcus faecalis
  MIC: 16 µg/mL (≈ 37.7 µM)

## CC[C@H](C)[C@H](NC(=O)[C@H](CCCNC(=N)N)NC(=O)[C@H](CCCNC(=N)N)NC(=O)[C@H](CC(C)C)NC(=O)[C@@H](N)Cc1ccccc1)C(=O)N[C@@H](CCCNC(=N)N)C(=O)N[C@H](C(N)=O)C(C)C [FLRRIRV-NH2] (H-FLRRIRV-NH2)
[2]; CMCC(B)26003, 24 h
  MIC Staphylococcus aureus: 128 µg/mL (≈ 134 µM)
[4]; ATCC 19115, 24 h
  MIC Listeria monocytogenes: 128 µg/mL (≈ 134 µM)

## CC[C@H](C)[C@H](NC(=O)[C@H](CCCNC(=N)N)NC(=O)[C@H](CCCNC(=N)N)NC(=O)[C@H](CC(C)C)NC(=O)[C@@H](N)Cc1ccccc1)C(=O)N[C@@H](CCCNC(=N)N)C(=O)N[C@H](C(=O)N[C@H](C(=O)N1CCC[C@H]1C(=O)N[C@@H](Cc1c[nH]c2ccccc12)C(=O)N[C@H](C(=O)N[C@@H](CC(N)=O)C(=O)N1CCC[C@H]1C(=O)N1CCC[C@H]1C(=O)N[C@@H](Cc1ccccc1)C(=O)N[C@@H](CC(C)C)C(=O)N[C@@H](CCC(N)=O)C(=O)N[C@@H](CCC(N)=O)C(=O)N[C@H](C(N)=O)[C@@H](C)O)C(C)C)[C@@H](C)O)C(C)C [FLRRIRVTPWVNPPFLQQT-NH2] (H-FLRRIRVTPWVNPPFLQQT-NH2)
[2]; CMCC(B)26003, 24 h
  MIC Staphylococcus aureus: 256 µg/mL (≈ 108 µM)
[4]; ATCC 19115, 24 h
  MIC Listeria monocytogenes: 128 µg/mL (≈ 54.1 µM)

## CC[C@H](C)[C@H](NC(=O)[C@H](CCCNC(=N)N)NC(=O)[C@H](CCCNC(=N)N)NC(=O)[C@H](Cc1c[nH]c2ccccc12)NC(=O)[C@@H](N)Cc1ccccc1)C(=O)N[C@@H](CCCNC(=N)N)C(=O)N[C@H](C(N)=O)C(C)C [FWRRIRV-NH2] (H-FWRRIRV-NH2)
[1]; CMCC(B)63501, 24 h
  MIC Bacillus subtilis: 128 µg/mL (≈ 124 µM)
[2]; CMCC(B)26003, 24 h
  MIC Staphylococcus aureus: 64 µg/mL (≈ 62.1 µM)
[4]; ATCC 19115, 24 h
  MIC Listeria monocytogenes: 32 µg/mL (≈ 31 µM)

## CC[C@H](C)[C@H](NC(=O)[C@H](CCCNC(=N)N)NC(=O)[C@H](CCCNC(=N)N)NC(=O)[C@H](Cc1c[nH]c2ccccc12)NC(=O)[C@@H](N)Cc1ccccc1)C(=O)N[C@@H](CCCNC(=N)N)C(=O)N[C@H](C(=O)N[C@H](C(=O)N1CCC[C@H]1C(=O)N[C@H](C(=O)N[C@H](C(=O)N[C@@H](CC(N)=O)C(=O)N1CCC[C@H]1C(=O)N1CCC[C@H]1C(=O)N[C@@H](Cc1ccccc1)C(=O)N[C@@H](CC(C)C)C(=O)N[C@@H](CCC(N)=O)C(=O)N[C@@H](CCC(N)=O)C(=O)N[C@H](C(N)=O)[C@@H](C)O)C(C)C)C(C)C)[C@@H](C)O)C(C)C [FWRRIRVTPVVNPPFLQQT-NH2] (H-FWRRIRVTPVVNPPFLQQT-NH2)
[2]; CMCC(B)26003, 24 h
  MIC Staphylococcus aureus: 256 µg/mL (≈ 109 µM)
[4]; ATCC 19115, 24 h
  MIC Listeria monocytogenes: 256 µg/mL (≈ 109 µM)

## CC[C@H](C)[C@H](NC(=O)[C@H](CCCNC(=N)N)NC(=O)[C@H](CCCNC(=N)N)NC(=O)[C@H](Cc1c[nH]c2ccccc12)NC(=O)[C@@H](N)Cc1ccccc1)C(=O)N[C@@H](CCCNC(=N)N)C(=O)N[C@H](C(=O)N[C@H](C(=O)N1CCC[C@H]1C(=O)N[C@H](C(=O)N[C@H](C(=O)N[C@@H](CC(N)=O)C(=O)N1CCC[C@H]1C(=O)N[C@@H](Cc1c[nH]c2ccccc12)C(=O)N[C@@H](Cc1ccccc1)C(=O)N[C@@H](CC(C)C)C(=O)N[C@@H](CCC(N)=O)C(=O)N[C@@H](CCC(N)=O)C(=O)N[C@H](C(N)=O)[C@@H](C)O)C(C)C)C(C)C)[C@@H](C)O)C(C)C [FWRRIRVTPVVNPWFLQQT-NH2] (H-FWRRIRVTPVVNPWFLQQT-NH2)
[1]; CMCC(B)63501, 24 h
  MIC Bacillus subtilis: 64 µg/mL (≈ 26.2 µM)
[2]; CMCC(B)26003, 24 h
  MIC Staphylococcus aureus: 32 µg/mL (≈ 13.1 µM)
[3]; CMCC(B) 44102, 24 h
  MIC Escherichia coli: 256 µg/mL (≈ 105 µM)
[4]; ATCC 19115, 24 h
  MIC Listeria monocytogenes: 32 µg/mL (≈ 13.1 µM)
[5]; CMCC(B)10104, 24 h
  MIC Pseudomonas aeruginosa: 256 µg/mL (≈ 105 µM)

## CC[C@H](C)[C@H](NC(=O)[C@H](CCCNC(=N)N)NC(=O)[C@H](CCCNC(=N)N)NC(=O)[C@H](Cc1c[nH]c2ccccc12)NC(=O)[C@@H](N)Cc1ccccc1)C(=O)N[C@@H](CCCNC(=N)N)C(=O)N[C@H](C(=O)N[C@H](C(=O)N1CCC[C@H]1C(=O)N[C@@H](Cc1c[nH]c2ccccc12)C(=O)N[C@H](C(=O)N[C@@H](CC(N)=O)C(=O)N1CCC[C@H]1C(=O)N1CCC[C@H]1C(=O)N[C@@H](Cc1ccccc1)C(=O)N[C@@H](CC(C)C)C(=O)N[C@@H](CCC(N)=O)C(=O)N[C@@H](CCC(N)=O)C(=O)N[C@H](C(N)=O)[C@@H](C)O)C(C)C)[C@@H](C)O)C(C)C [FWRRIRVTPWVNPPFLQQT-NH2] (H-FWRRIRVTPWVNPPFLQQT-NH2)
[1]; CMCC(B)63501, 24 h
  MIC Bacillus subtilis: 256 µg/mL (≈ 105 µM)
[2]; CMCC(B)26003, 24 h
  MIC Staphylococcus aureus: 64 µg/mL (≈ 26.2 µM)
[4]; ATCC 19115, 24 h
  MIC Listeria monocytogenes: 64 µg/mL (≈ 26.2 µM)

## CC(C)C[C@H](NC(=O)[C@H](Cc1ccccc1)NC(=O)[C@@H]1CCCN1C(=O)[C@@H]1CCCN1C(=O)[C@H](CC(N)=O)NC(=O)[C@@H](NC(=O)[C@@H](NC(=O)[C@@H]1CCCN1C(=O)[C@@H](N)[C@@H](C)O)C(C)C)C(C)C)C(=O)N[C@@H](CCC(N)=O)C(=O)N[C@@H](CCC(N)=O)C(=O)N[C@H](C(N)=O)[C@@H](C)O [TPVVNPPFLQQT-NH2, reference compound] (H-TPVVNPPFLQQT-NH2)
[4]; ATCC 19115, 24 h
  MIC Listeria monocytogenes: 512 µg/mL (≈ 382 µM)

## FLRRIRVTPVVNPPFLQQT-NH2
[1]; CMCC(B)63501, broth microdilution, LB broth, ~1.0 × 10^5 CFU/ml, 0.5 to 512.0 μg/ml, 37 °C, 24 h, OD600, performed three times
  MIC Bacillus subtilis: — (“—” indicates that the peptide is inactive at 512 μg/ml.)
[2]; CMCC(B)26003, broth microdilution, LB broth, ~1.0 × 10^5 CFU/ml, 0.5 to 512.0 μg/ml, 37 °C, 24 h, OD600, performed three times
  MIC Staphylococcus aureus: — (“—” indicates that the peptide is inactive at 512 μg/ml.)
[3]; CMCC(B) 44102, broth microdilution, LB broth, ~1.0 × 10^5 CFU/ml, 0.5 to 512.0 μg/ml, 37 °C, 24 h, OD600, performed three times
  MIC Escherichia coli: — (“—” indicates that the peptide is inactive at 512 μg/ml.)
[4]; ATCC 19115, broth microdilution, LB broth, ~1.0 × 10^5 CFU/ml, 0.5 to 512.0 μg/ml, 37 °C, 24 h, OD600, performed three times
  MIC Listeria monocytogenes: — (“—” indicates that the peptide is inactive at 512 μg/ml.)
[5]; CMCC(B)10104, broth microdilution, LB broth, ~1.0 × 10^5 CFU/ml, 0.5 to 512.0 μg/ml, 37 °C, 24 h, OD600, performed three times
  MIC Pseudomonas aeruginosa: — (“—” indicates that the peptide is inactive at 512 μg/ml.)
[6]
  MIC Enterococcus faecalis: — (“—” indicates that the peptide is inactive at 512 μg/ml.)
